Measured values published in publication PMC10668980, “Molecular Cloning, Heterologous Expression, Purification, and Evaluation of Protein–Ligand Interactions of CYP51 of Candida krusei Azole-Resistant Fungal Strain” (Biomedicines, 2023).
Read-outs that look alike come from different tables or passages of the source.

Tests used:
[1] = molecular target: T1, C. krusei CYP51 (C.krCYP51) (Pichia kudriavzevii, UniProt A9YUC7, K136R); assay: biochemical
Protocol: (§1) Dissociation constants of complexes of CYP51 with the substrate, inhibitors, and potential ligands were determined by the spectrophotometric titration method in [37]. Briefly, a protein solution (final concentration of 1 μM) in buffer (50 mM potassium phosphate buffer, pH 7.4) was placed in two cuvettes (1 × 1 cm), and a baseline was recorded on a spectrophotometer at a wavelength of 350–500 nm. The spectra were detected with a Cary 5000 UV-VIS-NIR spectrophotometer. A ligand solution was added to the experimental cuvette and an equal volume of solvent was added to the control cuvette; the change in optical absorption was recorded in the same wavelength range. The solutions in the cuvettes were thoroughly mixed by pipetting after adding the ligand solution or solvent and incubated for 1–2 min. The maximum and minimum absorption values were registered.
(§2) The dissociation constant of the enzyme–ligand complex (Kd) was used as a parameter characterizing the strength of ligand binding in the active site.

[2] = molecular target: T1, C. krusei CYP51 (C.krCYP51); settings: for ΔAmax: absorbance change at ligand saturation; for Type of Spectral Response: difference spectrum 350–500 nm
Protocol: as §1, §2

T1 sequence (A9YUC7 2-528 K136R): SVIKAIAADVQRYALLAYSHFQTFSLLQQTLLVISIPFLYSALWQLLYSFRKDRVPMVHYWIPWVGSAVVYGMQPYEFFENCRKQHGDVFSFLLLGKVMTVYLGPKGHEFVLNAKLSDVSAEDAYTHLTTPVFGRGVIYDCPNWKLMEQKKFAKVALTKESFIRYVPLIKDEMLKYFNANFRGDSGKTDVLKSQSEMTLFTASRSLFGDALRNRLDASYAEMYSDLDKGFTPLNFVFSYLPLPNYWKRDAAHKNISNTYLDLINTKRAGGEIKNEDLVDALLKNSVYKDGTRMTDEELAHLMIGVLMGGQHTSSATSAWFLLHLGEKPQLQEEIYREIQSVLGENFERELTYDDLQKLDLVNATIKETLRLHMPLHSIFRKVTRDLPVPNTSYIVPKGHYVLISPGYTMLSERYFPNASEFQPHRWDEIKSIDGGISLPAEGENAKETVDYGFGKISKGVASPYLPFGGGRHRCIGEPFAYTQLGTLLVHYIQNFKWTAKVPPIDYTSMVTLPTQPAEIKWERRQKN

Compound	Kd [1]	ΔAmax ([2]; steroid derivatives)	Type of Spectral Response ([2]; steroid derivatives)	ΔAmax ([2]; azoles)	Type of Spectral Response ([2]; azoles)
CC(=O)O[C@@]12C=C[C@]3(C[C@H]1[N+](=O)[O-])C1CCc4cc(O)ccc4C1CC[C@@]32C (stereo partly drawn) [73c, 14,17-etheno-3-hydroxy-16α-nitroestra-1,3,5(10)-trien-17β-yl acetate]	10700 nM	0.0069	type I	–	–
c1ccc(-c2ccc(C(c3ccccc3)n3ccnc3)cc2)cc1 (stereo not drawn) [Bifonazole]	3 nM	–	–	0.050	type II
COC1C(OC2CCC3(C)C(C(O)CC4(O)C3CCC3(C)C(C(C)CCC(OC5OC(CO)C(O)C5O)C(C)C)CC(O)C34)C2O)OCC(O)C1O (stereo not drawn) [Ch-4, granulatoside A]	6950 nM	0.0099	type I	–	–
CC(C)=CCC[C@@H](C)[C@H]1CC[C@@]2(C)C3=C(CC[C@]12C)[C@@]1(C)CC[C@H](O)C(C)(C)[C@@H]1CC3 [Lanosterol]	2820 nM	0.031	type I	–	–
C[C@@H](c1ncncc1F)[C@](O)(Cn1cncn1)c1ccc(F)cc1F [Voriconazole]	10 nM	–	–	0.023	type II
CC(C)C(C=C[C@](C)(O)[C@H]1CC[C@H]2[C@@H]3CC=C4C[C@@H](O)CC[C@]4(C)[C@H]3CC[C@@]21C)=NO [compound 99, 3β,20-dihydroxy-24-hydroxyiminocholest-5,22-diene]	1020 nM	0.0047	type I	–	–
